The source of these data is ChEMBL document CHEMBL2202973, “Specific interactions between adenosine and streptavidin/avidin” (Bioorg Med Chem Lett, 2012).

The target of data set [1] is Streptavidin (Streptomyces avidinii) (UniProt P22629). Kind of data set: Binding affinity to Streptomyces avidinii assessed as changes in protein fluorescence intensity by fluorescence spectral analysis method.
The target of another data set is Avidin (Gallus gallus, UniProt P02701). Kind of data set: Binding affinity to chick avidin using fluorescence spectral analysis method based double reciprocal plot analysis. Particulars: read-out: Kd(app).
Data set [2] deals with Streptavidin (Streptomyces avidinii) (UniProt P22629). As to the kind of experiment: Binding affinity to Streptomyces avidinii assessed as quenching rate constant by fluorescence quenching spectral method.
For a further data set, the target named is Albumin (Bos taurus, UniProt P02769). Kind of data set: Binding affinity to BSA assessed as changes in tryptophan fluorescence intensity by fluorescence spectral analysis method. Particulars: cattle.
The next data set concerns the target Streptavidin (Streptomyces avidinii, UniProt P22629). As to the kind of experiment: Binding affinity to Streptomyces avidinii streptavidin using fluorescence spectral analysis method based double reciprocal plot analysis. The settings on record: read-out: Kd(app).
For data set [3], the target named is Avidin (Gallus gallus) (UniProt P02701). As to the kind of experiment: Binding affinity to chick avidin assessed as quenching rate constant by fluorescence quenching spectral method.
The target is the same in data set [4]. Kind of data set: Binding affinity to chick avidin assessed as changes in protein fluorescence intensity by fluorescence spectral analysis method.
The target is the same in data set [5]. As to the kind of experiment: Binding affinity to chick avidin assessed as changes in protein fluorescence intensity in presence of biotin by fluorescence spectral analysis method.
Data set [6] concerns the target Streptavidin (Streptomyces avidinii) (UniProt P22629). As to the kind of experiment: Binding affinity to Streptomyces avidinii assessed as changes in protein fluorescence intensity in presence of biotin by fluorescence spectral analysis method.

The source made the active and inactive calls. No cut-off for these calls is given here.

Chain of Streptavidin (Streptomyces avidinii) (P22629 whole entry): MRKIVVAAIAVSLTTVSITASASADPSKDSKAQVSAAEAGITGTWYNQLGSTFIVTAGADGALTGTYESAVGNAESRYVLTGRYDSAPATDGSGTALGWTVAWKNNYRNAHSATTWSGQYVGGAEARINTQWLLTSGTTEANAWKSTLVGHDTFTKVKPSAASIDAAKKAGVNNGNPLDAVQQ
Chain of Avidin (Gallus gallus) (P02701 whole entry): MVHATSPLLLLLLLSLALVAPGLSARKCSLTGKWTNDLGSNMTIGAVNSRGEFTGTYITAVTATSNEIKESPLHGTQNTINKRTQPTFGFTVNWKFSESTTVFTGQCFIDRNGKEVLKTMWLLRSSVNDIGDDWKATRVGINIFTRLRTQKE
Chain of Streptavidin (P22629 whole entry): as the sequence (P22629 whole entry) above
Chain of Avidin (P02701 whole entry): as the sequence (P02701 whole entry) above
Chain of Albumin (P02769 whole entry): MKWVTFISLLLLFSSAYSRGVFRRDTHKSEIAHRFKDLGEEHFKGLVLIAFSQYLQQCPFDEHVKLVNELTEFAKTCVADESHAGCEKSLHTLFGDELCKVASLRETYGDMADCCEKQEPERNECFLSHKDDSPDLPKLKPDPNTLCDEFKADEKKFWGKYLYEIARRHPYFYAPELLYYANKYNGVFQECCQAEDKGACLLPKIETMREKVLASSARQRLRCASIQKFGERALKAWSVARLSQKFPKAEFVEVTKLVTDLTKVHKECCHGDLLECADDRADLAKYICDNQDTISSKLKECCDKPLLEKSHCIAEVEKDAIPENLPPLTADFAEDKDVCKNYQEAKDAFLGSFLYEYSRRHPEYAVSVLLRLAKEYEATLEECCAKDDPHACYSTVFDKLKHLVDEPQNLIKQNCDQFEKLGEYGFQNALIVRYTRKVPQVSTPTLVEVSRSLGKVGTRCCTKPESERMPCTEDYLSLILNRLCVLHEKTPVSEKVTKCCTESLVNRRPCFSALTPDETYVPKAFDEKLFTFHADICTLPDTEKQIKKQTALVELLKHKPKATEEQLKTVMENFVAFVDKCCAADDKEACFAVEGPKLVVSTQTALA

Regarding `Nc1ncnc2c1ncn2[C@@H]1O[C@H](COP(=O)(O)OP(=O)(O)OP(=O)(O)O)[C@@H](O)[C@H]1O`, the outcome in data set [1] was inactive.

Take `O=C(O)CCCC[C@@H]1SC[C@@H]2NC(=O)N[C@@H]21`: the outcome in data set [1] was Active.

Turning to `Nc1ncnc2c1ncn2[C@@H]1O[C@H](CO)[C@@H](O)[C@H]1O` [ADENOSINE], the Kd is 117 µM at Avidin and 168 µM on Streptavidin. Besides, the Kq in [2] came out at 8.5 ×10¹⁰ L/mol/s; on Avidin (Gallus gallus) [3], 1.28 ×10¹¹ L/mol/s. In addition, at Albumin, the Activity entry is on record as “Not Active”. Further, the outcome (at Avidin (Gallus gallus) [4]; in data set [1]) was Active. The result (at Avidin (Gallus gallus) [5]; in [6]) was inactive.
